US20220175777A1, “Inhibitors of Multidrug Resistance Transporter P-Glycoprotein” (Southern Methodist University, priority 2014, published 2022)

Tests used:
P-gp = P-gp (Homo sapiens, UniProt P08183)
Protocol: Stimulation of basal ATPase by 29-variants was used as an indicator that a compound may be a P-gp transport substrate. Effects on stimulated P-gp ATPase activity indicated whether a compound directly interfered with ATP usage by the protein (***, p<0.001; **, p<0.01; *, p<0.1; NS, not significant). Quantitative cellular accumulation of 29-variants was performed using LC-MS/MS and is presented as a ratio of the cellular amounts of 29-variants in the presence of P-gp inhibitor, tariquidar, divided by amounts accumulated in its absence. […] Binding of an ATP analog, SL-ATP, to P-gp was used to determine whether ATP binding to P-gp was affected by the 29-variants. Values+/−standard deviations are shown for at least three different P-gp preparations and three independent SL-ATP titration experiments. The values for SL-ATP binding in the presence of 29 were taken directly from Brewer et al. (2014).
Intracellular accumulation of compound 29 variants. Cell accumulation assays for each of the 29 variants were performed as in reference^28 to more directly assess whether the compounds were indeed transport substrates for P-gp.

[1] = target: T1, Cysteineless Mouse MDR3 P-glycoprotein (Mus musculus, UniProt P21447, C1070A/C1121A/C1223A/C133A/C427A/C638A/C669A/C713A/C952A); assay: SL-ATP binding to P-gp by ESR spectroscopy; conditions: for Maximum ATP binding mol SL-ANP bound/mol P-gp: SL-ATP titration in presence of compound
T1 construct: made in house; host or cells: Pichia pastoris
Description: Determination of the possible mode of ATP hydrolysis inhibition by the identified P-glycoprotein inhibitors. The mode of hydrolysis of ATP by P-glycoprotein was investigated by measuring the maximal binding stoichiometry and binding affinity of an analog of ATP, SL-ATP, and by Electron Spin Resonance (ESR) spectroscopy, similar to in both the presence and absence of the identified inhibitors.
The high-field signal of the freely mobile, unbound SL-ATP is compared and is used to calculate the amount of ATP-analog bound to P-glycoprotein. Binding of SL-ATP in the absence of any P-glycoprotein inhibitor saturated at about 2 mol of SL-nucleotide bounds per mol of P-glycoprotein.
FIGS. 2A-2D are plots showing the effects of P-glycoprotein ATP hydrolysis inhibitors on nucleotide binding. Between 30 and 50 microM Pgp were incubated with 50 microM inhibitor compound. Increasing amounts of SL-ATP were added. The ESR signal of the free SL-ATP in the presence of P-glycoprotein and inhibitor was compared to that in the absence of P-glycoprotein. The graphs represent at least 3 individual studies each using 3 to 5 different P-glycoprotein preparations.

[2] = target: T1, Cysteineless Mouse MDR3 P-glycoprotein; assay: ATP hydrolysis by purified P-glycoprotein, basal and verapamil-stimulated; format: biochemical; conditions: for Effect on stimulated ATPase / Stimulated ATPase (% of DMSO): in the presence of verapamil; for Stimulated ATPase (% of DMSO) / Basal ATPase (% of DMSO): ± standard deviation; for Effect on basal ATPase / Basal ATPase (% of DMSO): without added transport substrate
Description: The efficacy of molecules identified using in silico methods to function as potential inhibitors of P-glycoprotein was initially tested with regard to their capability to inhibit ATP hydrolysis by purified P-glycoprotein. For this purpose, a well-established activity assay for ATP hydrolyzing enzymes that uses the oxidation of NADH to NAD+ through coupling the reactions of pyruvate kinase and lactate dehydrogenase to the hydrolysis of ATP was adapted to medium throughput conditions on 96 well plates. […] In this set-up, the effects of potential small molecule inhibitors on the ATP hydrolysis activity of P-glycoprotein were tested in duplicate or triplicate and were repeated at least two times using different enzyme preparations.
The P-glycoprotein used in these assays was a close relative of the human P-glycoprotein that is found in mice. A mutant version of the mouse P-glycoprotein where all intrinsic cysteine amino acids had been replaced by alanine residues was recombinantly expressed in the yeast Pichia pastoris and used for these initial tests. […] Prior to testing the ATP-hydrolysis activity, P-glycoprotein was incubated with phosphatidyl choline for stabilization of the enzyme during the assay.
Different concentrations of the to-be-tested small molecules were added and pre-incubated at 37° C. The ATP hydrolysis reaction was then started by adding equal volume of double concentrated ATPase cocktail. The final ATP concentration in the reaction was 2 mM. The reaction was allowed to proceed for 20 minutes, the rate of ATP hydrolysis was calculated using the molar extinction coefficient of NADH, and the one-to-one relationship of ATP hydrolyzed and NADH oxidized.
Evaluation of mode of inhibition of P-glycoprotein by Group 1 and Group 2 variants of compound 29. To assess the mode of inhibition of P-gp by the novel variants of P-gp inhibitor 29, ATP hydrolysis by P-gp was evaluated in the presence or absence of the variants. […] Murine P-gp (MDR3) expressed in Pichia pastoris that had all naturally occurring cysteines replaced with alanine, was used^45, 46. It is widely assumed that the ATP hydrolytic rate of P-gp is stimulated in the presence of transport substrates when compared to ATP hydrolysis in the absence of transport substrates. Assays comparing these rates can therefore be useful not only in identifying inhibitors of P-gp catalyzed ATP hydrolysis, but also to potentially infer whether a compound might be a transport substrate if basal ATPase rates are stimulated by the addition of a compound.

[3] = target: Normal Human MDR1 P-glycoprotein (Homo sapiens, UniProt P08183); assay: ATP hydrolysis by human P-gp assembled into membrane nanodiscs; format: biochemical; conditions: human MDR1 P-gp in nanodiscs
Description: To assess whether the observed discrepancies of compounds stimulating basal P-gp ATPase activity but not being transport substrates of the human pump in the cell culture assessments were due to the fact that these biochemical assays used a cysteineless variant of the mouse MDR3 P-glycoprotein, the experiments were repeated using normal human MDR1 P-gp. In order to stabilize the human protein for the activity assays, the protein was assembled into membrane nanodiscs as described herein.

DU145TXR [4] = assay: Resensitization of DU145TXR to paclitaxel by 29 variants (MTT cell viability); format: cell-based, human; conditions: for Fold vs PTX ÷ 29: compared to parental compound 29
Description: The Group 1 ChemGen/docking routine produced variants of P-gp inhibitor 29 resensitize a multidrug resistant, P-gp overexpressing prostate cancer cell line to paclitaxel. The mitochondrial reduction potential of cells is often used as an indicator for cell viability using MTT assays^40-42. Using these assays it was observed that the five Group 1 derivatives of 29 predicted through the ChemGen/docking routine and synthesized here, 216, 227, 231, 541 and 551, re-sensitized the P-gp overexpressing prostate cancer cell line, DU145TXR^33, to the chemotherapeutic, paclitaxel (FIG. 9, showing results of assays at concentrations of 3 μM, 5 μM, 7 μM, and 10 μM).
Cytotoxicity of the chemotherapeutic, paclitaxel (PTX) to P-gp overexpressing prostate cancer cells, DU145TXR, was determined in the absence and presence of the ChemGen designed 29-variants, 216, 227, 231, 541 and 551. For each experimental compound IC50 values of PTX alone or in the presence of inhibitors, fold improvement of PTX sensitivity in the presence of inhibitor, and fold improvement of PTX sensitivity by variants compared to parental compound 29 are given.

DU145TXR [5] = assay: Intrinsic toxicity, MTT survival; format: cell-based, human; conditions: in the absence of chemotherapeutic
Protocol: Percent survival determined by MTT assay calculated relative to cells treated with equal volume DMSO vehicle and represent the mean±SEM from 2-4 separate studies, each study performed in triplicate wells.
The intrinsic in vitro toxicities of identified compounds were evaluated to determine their potential therapeutic window. This was assessed in a noncancerous cell line (HFL1) and the human prostate cancer cell lines DU145 and the MDR sub-line DU145TxR.

[6] = system: P-gp overexpressing DU145TXR cells; assay: Calcein AM accumulation assay; format: cell-based, human
Protocol: Accumulation and cellular retention of calcein AM in P-gp overexpressing prostate cancer cells upon incubation with Group 1 SMU-29 variants. Calcein AM accumulation assays have been used by us previously to evaluate P-gp-substrate accumulation in real time in the presence or absence of P-gp inhibitors^28. For these assays, P-gp overexpressing DU145TXR cells were incubated with the respective inhibitors in the presence of the P-gp substrate, calcein AM. Inhibition of P-gp leads to cellular accumulation of calcein AM and to cleavage of its acetoxymethyl ester groups, resulting in the generation of the highly fluorescent compound, calcein. The anionic calcein is not a substrate of P-gp and remains in the cells. In these assays, the relative fluorescence of cellular calcein was measured over time and the results of these assays are shown in FIG. 10A.
The inventors determined if preferential partitioning of variants in the hydrophobic part of the cell membrane may keep them more distant from the putative allosteric site on P-gp which is located adjacent to the membrane in the cytoplasm, therefore potentially slowing the inhibitory effect of the compounds.

T1 sequence (P21447 whole entry C133A/C427A/C638A/C669A/C713A/C952A/C1070A/C1121A/C1223A): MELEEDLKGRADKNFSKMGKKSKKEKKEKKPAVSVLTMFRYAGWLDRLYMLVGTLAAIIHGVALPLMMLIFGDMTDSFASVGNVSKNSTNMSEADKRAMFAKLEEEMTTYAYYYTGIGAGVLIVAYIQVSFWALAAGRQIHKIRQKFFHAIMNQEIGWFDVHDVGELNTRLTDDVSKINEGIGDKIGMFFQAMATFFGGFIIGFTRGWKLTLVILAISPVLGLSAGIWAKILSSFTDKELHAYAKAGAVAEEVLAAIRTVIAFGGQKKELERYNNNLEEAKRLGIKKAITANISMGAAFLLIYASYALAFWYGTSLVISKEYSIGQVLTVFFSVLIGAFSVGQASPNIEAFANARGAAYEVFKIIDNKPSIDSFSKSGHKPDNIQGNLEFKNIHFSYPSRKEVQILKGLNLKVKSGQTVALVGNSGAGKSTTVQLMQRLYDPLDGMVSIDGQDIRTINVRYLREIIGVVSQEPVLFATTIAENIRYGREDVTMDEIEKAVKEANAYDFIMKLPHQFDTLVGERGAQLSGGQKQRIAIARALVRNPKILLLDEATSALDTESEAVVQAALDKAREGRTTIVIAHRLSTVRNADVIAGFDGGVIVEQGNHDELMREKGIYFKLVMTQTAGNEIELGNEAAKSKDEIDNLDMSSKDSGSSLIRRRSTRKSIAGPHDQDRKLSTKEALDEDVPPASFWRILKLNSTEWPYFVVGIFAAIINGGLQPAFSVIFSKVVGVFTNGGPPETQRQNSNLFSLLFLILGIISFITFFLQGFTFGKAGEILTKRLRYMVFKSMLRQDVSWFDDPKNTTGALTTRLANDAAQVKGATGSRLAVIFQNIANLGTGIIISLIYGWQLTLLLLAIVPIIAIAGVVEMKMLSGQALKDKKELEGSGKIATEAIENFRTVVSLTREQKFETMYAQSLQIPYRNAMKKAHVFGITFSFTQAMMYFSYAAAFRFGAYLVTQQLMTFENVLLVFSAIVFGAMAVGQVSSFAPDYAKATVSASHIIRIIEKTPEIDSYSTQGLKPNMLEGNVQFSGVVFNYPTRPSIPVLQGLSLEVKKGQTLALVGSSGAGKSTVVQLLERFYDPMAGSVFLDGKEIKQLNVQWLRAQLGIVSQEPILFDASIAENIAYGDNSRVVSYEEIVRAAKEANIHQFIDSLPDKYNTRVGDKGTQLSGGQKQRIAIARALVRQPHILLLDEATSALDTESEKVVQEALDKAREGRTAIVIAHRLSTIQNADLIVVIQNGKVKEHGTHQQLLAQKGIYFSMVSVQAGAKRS
Normal Human MDR1 P-glycoprotein, sequence (P08183 whole entry): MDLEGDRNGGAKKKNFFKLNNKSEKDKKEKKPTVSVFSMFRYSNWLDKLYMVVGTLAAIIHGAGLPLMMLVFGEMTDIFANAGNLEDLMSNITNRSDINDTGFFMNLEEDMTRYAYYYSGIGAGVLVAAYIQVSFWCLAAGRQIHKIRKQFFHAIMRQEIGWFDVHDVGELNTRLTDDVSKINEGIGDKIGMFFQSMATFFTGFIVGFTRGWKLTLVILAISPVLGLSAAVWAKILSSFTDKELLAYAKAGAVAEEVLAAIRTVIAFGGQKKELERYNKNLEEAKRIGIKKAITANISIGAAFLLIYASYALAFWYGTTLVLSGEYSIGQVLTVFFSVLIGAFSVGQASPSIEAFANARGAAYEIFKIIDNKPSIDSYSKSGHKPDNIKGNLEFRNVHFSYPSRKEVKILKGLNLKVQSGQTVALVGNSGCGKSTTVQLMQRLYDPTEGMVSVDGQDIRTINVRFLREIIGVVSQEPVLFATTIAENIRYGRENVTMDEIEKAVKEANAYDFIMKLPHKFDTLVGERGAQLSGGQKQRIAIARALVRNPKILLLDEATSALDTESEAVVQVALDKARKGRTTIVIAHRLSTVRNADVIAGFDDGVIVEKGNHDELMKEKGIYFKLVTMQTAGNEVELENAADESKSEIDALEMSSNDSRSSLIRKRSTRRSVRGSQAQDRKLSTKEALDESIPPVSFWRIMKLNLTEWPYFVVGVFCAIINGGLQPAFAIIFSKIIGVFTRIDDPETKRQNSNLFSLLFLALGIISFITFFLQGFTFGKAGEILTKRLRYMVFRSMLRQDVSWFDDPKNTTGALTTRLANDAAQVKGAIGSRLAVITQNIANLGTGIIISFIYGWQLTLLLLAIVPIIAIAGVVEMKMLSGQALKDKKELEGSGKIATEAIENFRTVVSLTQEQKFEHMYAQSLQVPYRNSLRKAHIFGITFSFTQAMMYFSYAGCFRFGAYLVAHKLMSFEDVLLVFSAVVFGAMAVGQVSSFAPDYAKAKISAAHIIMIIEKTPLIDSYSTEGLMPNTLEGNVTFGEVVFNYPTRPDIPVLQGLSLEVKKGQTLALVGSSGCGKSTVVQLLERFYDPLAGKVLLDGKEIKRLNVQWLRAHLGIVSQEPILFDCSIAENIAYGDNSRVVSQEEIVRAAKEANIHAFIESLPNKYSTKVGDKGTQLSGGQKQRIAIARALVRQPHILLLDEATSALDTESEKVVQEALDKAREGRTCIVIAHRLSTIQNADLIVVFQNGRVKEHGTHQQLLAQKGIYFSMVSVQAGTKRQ
P-gp, sequence (P08183 whole entry): as above

Row | Maximum ATP binding mol SL-ANP bound/mol P-gp [1] | Stimulated ATPase (% of DMSO) [2] | Basal ATPase (% of DMSO) [2] | Basal ATPase (% of DMSO) [3] | Stimulated ATPase (% of DMSO) [3] | Structure (SMILES) | Fold vs PTX ÷ 29 (DU145TXR [4]; 5 μM inhibitor) | Fold vs PTX (DU145TXR [4]; 5 μM inhibitor, vs PTX alone) | Fold vs PTX ÷ 29 (DU145TXR [4]; 7 μM inhibitor) | Fold vs PTX (DU145TXR [4]; 7 μM inhibitor, vs PTX alone) | Fold vs PTX ÷ 29 (DU145TXR [4]; 10 μM inhibitor) | Fold vs PTX (DU145TXR [4]; 10 μM inhibitor, vs PTX alone) | Cellular calcein accumulation relative to parental compound 29 ([6]; after 6-hour pre-incubation) | Cellular calcein accumulation relative to parental compound 29 ([6]; no preincubation) | further results
1 | 1.7 ± 0.1 mol SL-ANP bound/mol P-gp | 108 ± 2 % of DMSO | 105 ± 7 % of DMSO | 69 ± 8 % of DMSO | 64 ± 6 % of DMSO | Cc1cc(C)c(-c2cc(NC(=O)CSCC(=O)c3ccc4c(c3)Cc3ccccc3-4)n(-c3ccccc3)n2)cc1C [SMU29-216] | 1.3 Fold | 14 Fold | 1 Fold | 34 Fold | 0.4 Fold | 37 Fold |  |  | Cellular accumulation: ratio of plus Tariquidar over no Tariquidar (P-gp): 1.1; Transport substrate for P-gp (P-gp; not told): no; Effect on SL-ANP binding [1]: no; Effect on stimulated ATPase [2]: none; Effect on stimulated ATPase ([2]; listed as 216): did not affect; Effect on basal ATPase [2]: none; Effect on basal ATPase ([2]; listed as 216): did not significantly affect; Effect on basal ATPase [3]: inhibitor; Effect on stimulated ATPase [3]: inhibitor
2 | 1.8 ± 0.1 mol SL-ANP bound/mol P-gp | 68 ± 7 % of DMSO | 101 ± 12 % of DMSO | 87 ± 9 % of DMSO | 66 ± 6 % of DMSO | Cc1cc(C)c(-c2cc(NC(=O)CSc3nnc4c(n3)[nH]c3ccccc34)n(-c3ccccc3)n2)cc1C [SMU29-541, 2-((5H-[1,2,4]triazino[5,6-b]indol-3-yl)thio)-N-(1-phenyl-3-(2,4,5-trimethylphenyl)-1H-pyrazol-5-yl)acetamide] | 9.2 Fold | 101 Fold | 3.4 Fold | 125 Fold | 3.4 Fold | 125 Fold | exceeded 29 significantly | performed relatively equally to 29 | Toxicity in cell viability assays (DU145TXR [5]): some toxicity; Fold vs PTX (DU145TXR [4]; 3 μM inhibitor, fold improvement of PTX sensitivity vs PTX alone): 5 Fold
3 | 1.7 ± 0.1 mol SL-ANP bound/mol P-gp | 62 ± 5 % of DMSO | 150 ± 6 % of DMSO | 72 ± 9 % of DMSO | 27 ± 1 % of DMSO | Cc1cc(C)c(-c2cc(NC(=O)CSc3cccc(NC(=O)c4cncc(Br)c4)c3)n(-c3ccccc3)n2)cc1C [SMU29-551, 5-bromo-N-(3-((2-oxo-2-((1-phenyl-3-(2,4,5-trimethylphenyl)-1H-pyrazol-5-yl)amino)ethyl)thio)phenyl)nicotinamide] | 9.7 Fold | 106 Fold | 6.6 Fold | 236 Fold | 3.5 Fold | 353 Fold | equivalent to 29 | marginally higher calcein accumulation than parental compound 29 | 
